We go through 31 compounds from patent publication US8592629B2, “Sulfonamide derivatives as Nav 1.7 inhibitors” (Pfizer Limited, priority 2010, dated 2013).

Test [1] has as its target T1, Nav1.7 (or SCN9A) channel (Homo sapiens, UniProt Q15858).
T1 construct: expressed in transfected cells
Description: Nav1.7 (hSCN9A) block in HEK cells, PatchXpress 7000 automated electrophysiology, estimated IC50 (EIC50). The test is classed as cell-based. The following applies: PatchXpress assay; HEK cells stably transfected with hSCN9A, voltage-clamped at V1/2 of inactivation. In short, it runs like this: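 Stable hSCN9A HEK cells voltage-clamped at empirically determined inactivation V1/2 (8 s prepulse), current activated by 20 msec step to 0 mV; % inhibition from current before vs after compound. EIC50 derived from single-point data as concentration × (100−%inhibition)/%inhibition, excluding <20% and >80% inhibition; PatchXpress unless stated.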

Test [2] has as its target T1, Nav1.7 (or SCN9A) channel. The test can be described thus: Nav1.7 (hSCN9A) block in HEK cells, Ionworks Quattro automated electrophysiology. It counts as cell-based. The following applies: Ionworks Quattro assay (IW); HEK cells stably transfected with hSCN9A; read-out: Nav1.7 EIC50 (IW). Here is the method: The ability of the compounds of formula (I) to block the Nav1.7 (or SCN9A) channel were measured using the assay described below.
Human Embryonic Kidney (HEK) cells were transfected with an hSCN9A construct using lipofectamine reagent (Invitrogen), using standard techniques. Cells stably expressing the hSCN9A constructs were identified by their resistance to G-418 (400 μg/ml). Clones were screened for expression using the whole-cell voltage-clamp technique.
HEK cells stably transfected with hSCN9A were maintained in DMEM medium supplemented with 10% heat-inactivated fetal bovine serum and 400 μg/ml G-418 in an incubator at 37° C. with a humidified atmosphere of 10% CO2. For HTS, cells were harvested from flasks by trypsinization and replated in an appropriate multi-well plate (typically 96 or 384 wells/plate) such that confluence would be achieved within 24 hours of plating. For electrophysiological studies, cells were removed from the culture flask by brief trypsinization and re-plated at low density onto glass cover slips. Cells were typically used for electrophysiological experiments within 24 to 72 hours after plating.
Electrophysiological assays were also conducted using the lonworks Quattro automated electrophysiological platform (Molecular Devices Corp). Intracellular and extracellular solutions were as described above with the following changes, 120 μg/ml amphotericin was added to the intracellular solution to perforate the membrane and allow electrical access to the cells. hSCN9A cells were grown and harvested as for PatchXpress and cells were resuspended in extracellular solution at a concentration of 1×10^6 cells/ml. The onboard liquid handling facility of the Ionworks Quattro was used for dispensing cells and application of test compounds. A voltage protocol was then applied that comprised of a voltage step to fully inactivate the sodium channels, followed by a brief hyperpolarized recovery period to allow partial recovery from inactivation for unblocked sodium channels, followed by a test depolarized voltage step to assess magnitude of inhibition by test compound. Compound effect was determined based on current amplitude difference between the pre-compound addition and post-compound addition scans.
Compounds of the Examples were tested in the assays described above and found to have the Nav1.7 EIC50 (μM) values specified in the table below. All data are derived from the PatchXpress assay unless explicitly stated otherwise.

Molecules are shown by their SMILES.

T1 sequence (Q15858 whole entry): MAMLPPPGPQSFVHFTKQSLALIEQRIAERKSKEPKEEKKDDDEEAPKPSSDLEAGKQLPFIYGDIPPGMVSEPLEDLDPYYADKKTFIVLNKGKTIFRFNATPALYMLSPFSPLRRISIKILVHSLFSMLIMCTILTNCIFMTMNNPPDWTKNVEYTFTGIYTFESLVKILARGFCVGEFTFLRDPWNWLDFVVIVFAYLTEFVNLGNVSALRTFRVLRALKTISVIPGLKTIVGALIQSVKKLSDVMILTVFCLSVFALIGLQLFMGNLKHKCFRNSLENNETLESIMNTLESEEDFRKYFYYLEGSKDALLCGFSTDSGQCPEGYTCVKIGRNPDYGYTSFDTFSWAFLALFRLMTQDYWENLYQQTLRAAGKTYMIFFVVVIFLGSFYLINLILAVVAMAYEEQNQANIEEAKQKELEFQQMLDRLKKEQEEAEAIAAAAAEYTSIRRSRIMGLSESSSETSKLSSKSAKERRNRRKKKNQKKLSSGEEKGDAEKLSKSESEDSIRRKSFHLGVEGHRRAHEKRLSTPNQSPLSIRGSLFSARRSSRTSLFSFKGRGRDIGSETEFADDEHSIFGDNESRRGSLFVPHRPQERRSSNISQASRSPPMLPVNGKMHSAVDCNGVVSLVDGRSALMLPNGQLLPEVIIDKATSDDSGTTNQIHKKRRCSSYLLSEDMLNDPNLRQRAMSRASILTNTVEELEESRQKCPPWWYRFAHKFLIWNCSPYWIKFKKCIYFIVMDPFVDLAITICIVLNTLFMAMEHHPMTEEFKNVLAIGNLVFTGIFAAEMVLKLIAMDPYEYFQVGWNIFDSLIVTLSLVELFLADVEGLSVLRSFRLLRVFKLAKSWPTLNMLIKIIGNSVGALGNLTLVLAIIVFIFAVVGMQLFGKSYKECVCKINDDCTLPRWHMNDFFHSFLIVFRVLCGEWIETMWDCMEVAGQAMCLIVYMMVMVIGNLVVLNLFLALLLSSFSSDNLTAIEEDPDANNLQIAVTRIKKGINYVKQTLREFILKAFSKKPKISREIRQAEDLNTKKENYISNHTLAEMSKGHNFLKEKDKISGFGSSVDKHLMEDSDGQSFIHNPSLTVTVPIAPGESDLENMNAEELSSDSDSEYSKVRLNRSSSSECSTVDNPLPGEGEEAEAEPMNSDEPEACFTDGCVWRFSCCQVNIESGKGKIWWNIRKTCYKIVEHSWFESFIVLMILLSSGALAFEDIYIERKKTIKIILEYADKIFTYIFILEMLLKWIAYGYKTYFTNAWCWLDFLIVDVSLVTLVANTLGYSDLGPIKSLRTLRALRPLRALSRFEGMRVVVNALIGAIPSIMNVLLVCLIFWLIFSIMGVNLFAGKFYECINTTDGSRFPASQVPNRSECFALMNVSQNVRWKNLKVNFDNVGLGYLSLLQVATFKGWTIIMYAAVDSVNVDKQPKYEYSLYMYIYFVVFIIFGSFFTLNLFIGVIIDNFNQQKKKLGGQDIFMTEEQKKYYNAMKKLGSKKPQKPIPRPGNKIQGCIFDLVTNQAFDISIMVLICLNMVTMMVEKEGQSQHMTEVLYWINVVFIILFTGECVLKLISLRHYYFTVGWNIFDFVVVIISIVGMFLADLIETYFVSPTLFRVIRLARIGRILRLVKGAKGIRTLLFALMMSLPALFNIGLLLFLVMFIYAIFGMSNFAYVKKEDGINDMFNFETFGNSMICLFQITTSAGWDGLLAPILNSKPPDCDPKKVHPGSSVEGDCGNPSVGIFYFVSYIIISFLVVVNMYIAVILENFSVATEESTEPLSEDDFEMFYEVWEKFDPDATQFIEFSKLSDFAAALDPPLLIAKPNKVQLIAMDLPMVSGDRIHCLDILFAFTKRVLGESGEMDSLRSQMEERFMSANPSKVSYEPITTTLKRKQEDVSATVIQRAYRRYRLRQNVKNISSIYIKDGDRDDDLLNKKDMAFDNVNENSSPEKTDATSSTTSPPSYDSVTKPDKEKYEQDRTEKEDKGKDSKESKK

For `CS(=O)(=O)NC(=O)c1cc(F)c(Oc2cnc(N3C[C@H]4CC[C@@H]3C4)c(Cl)c2)cc1F` [Example 131, 4-({6-[(1R,4S)-2-azabicyclo[2.2.1]hept-2-yl]-5-chloropyridin-3-yl}oxy)-2,5-difluoro-N-(methylsulfonyl)benzamide], the IC50 in test [1] is 71 nM. For the compound `C[C@@H]1CCCN1c1ncc(Oc2cc(F)c(C(=O)NS(C)(=O)=O)cc2F)cc1Cl` [Example 132, 4-({5-chloro-6-[(2R)-2-methylpyrrolidin-1-yl]pyridin-3-yl}oxy)-2,5-difluoro-N-(methylsulfonyl)benzamide], in test [1], the IC50 was 160 nM. With `CN(c1ncc(Oc2cc(F)c(C(=O)NS(C)(=O)=O)cc2F)cc1Cl)C1CCC1` [Example 133, 4-({5-chloro-6-[cyclobutyl(methyl)amino]pyridin-3-yl}oxy)-2,5-difluoro-N-(methylsulfonyl)benzamide], the IC50 in test [1] is 170 nM. Take `CS(=O)(=O)NC(=O)c1cc(F)c(Oc2cnc(N3CC(F)C3)c(Cl)c2)cc1F` [Example 134, 4-{[5-chloro-6-(3-fluoroazetidin-1-yl)pyridin-3-yl]oxy}-2,5-difluoro-N-(methylsulfonyl)benzamide]: the IC50 in test [1] was 580 nM. As to `CC(C)CN(C)c1ncc(Oc2cc(F)c(C(=O)NS(C)(=O)=O)cc2F)cc1Cl` [Example 135, 4-({5-chloro-6-[isobutyl(methyl)amino]pyridin-3-yl}oxy)-2,5-difluoro-N-(methylsulfonyl)benzamide], in test [1], the IC50 is 140 nM. The same measure, in the same setting: the same measure for `COC[C@H](C)Nc1ncc(Oc2cc(F)c(C(=O)NS(C)(=O)=O)cc2F)cc1Cl` [Example 136, 4-[(5-chloro-6-{[(1S)-2-methoxy-1-methylethyl]amino}pyridin-3-yl)oxy]-2,5-difluoro-N-(methylsulfonyl)benzamide]: 890 nM; for `CNc1ncc(Oc2cc(F)c(C(=O)NS(C)(=O)=O)cc2F)cc1Cl` [Example 137, 4-{[5-chloro-6-(methylamino)pyridin-3-yl]oxy}-2,5-difluoro-N-(methylsulfonyl)benzamide]: 3200 nM. On to `CS(=O)(=O)NC(=O)c1cc(F)c(Oc2cnc(NC3CCCC3)c(Cl)c2)cc1F` [Example 138, 4-{[5-chloro-6-(cyclopentylamino)pyridin-3-yl]oxy}-2,5-difluoro-N-(methylsulfonyl)benzamide], for which the IC50 in test [1] is 85 nM. `CN(c1ncc(Oc2cc(F)c(C(=O)NS(C)(=O)=O)cc2F)cc1Cl)C1CCOC1` (stereo not shown) [Example 139, 4-({5-chloro-6-[methyl(tetrahydrofuran-3-yl)amino]pyridin-3-yl}oxy)-2,5-difluoro-N-(methylsulfonyl)benzamide]: in test [1], the IC50 was 2600 nM. As for `CS(=O)(=O)NC(=O)c1cc(F)c(Oc2cnc(NC3CC3)c(Cl)c2)cc1F` [Example 140, 4-{[5-chloro-6-(cyclopropylamino)pyridin-3-yl]oxy}-2,5-difluoro-N-(methylsulfonyl)benzamide], the IC50 in test [1] is 1600 nM. Still for that read-out and setting: the same measure for `CN(CC1CC1)c1ncc(Oc2cc(F)c(C(=O)NS(C)(=O)=O)cc2F)cc1Cl` [Example 141, 4-({5-chloro-6-[(cyclopropylmethyl)(methyl)amino]pyridin-3-yl}oxy)-2,5-difluoro-N-(methylsulfonyl)benzamide]: 270 nM; for `CS(=O)(=O)NC(=O)c1cc(F)c(Oc2cnc(N3CCCCC3)c(Cl)c2)cc1F` [Example 142, 4-[(5-chloro-6-piperidin-1-ylpyridin-3-yl)oxy]-2,5-difluoro-N-(methylsulfonyl)benzamide]: 170 nM; for `COCCNc1ncc(Oc2cc(F)c(C(=O)NS(C)(=O)=O)cc2F)cc1Cl` [Example 143, 4-({5-chloro-6-[(2-methoxyethyl)amino]pyridin-3-yl}oxy)-2,5-difluoro-N-(methylsulfonyl)benzamide]: > 1000 nM. Same read-out and setting: next, `CS(=O)(=O)NC(=O)c1cc(F)c(Oc2cnc(N[C@@H]3CCC[C@H]3F)c(Cl)c2)cc1F` [Example 144, 4-[(5-chloro-6-{[(1R,2R)-2-fluorocyclopentyl]amino}pyridin-3-yl)oxy]-2,5-difluoro-N-(methylsulfonyl)benzamide]: 490 nM; `CS(=O)(=O)NC(=O)c1cc(F)c(Oc2cnc(NC3CCCOC3)c(Cl)c2)cc1F` (stereo not shown) [Example 145, 4-{[5-chloro-6-(tetrahydro-2H-pyran-3-ylamino)pyridin-3-yl]oxy}-2,5-difluoro-N-(methylsulfonyl)benzamide]: 810 nM. On the same count and under the same terms, next, `CS(=O)(=O)NC(=O)c1cc(F)c(Oc2cnc(N3CCCC3)c(Cl)c2)cc1F` [Example 146, 4-[(5-chloro-6-pyrrolidin-1-ylpyridin-3-yl)oxy]-2,5-difluoro-N-(methylsulfonyl)benzamide]: 76 nM; `CCN(CC)c1ncc(Oc2cc(F)c(C(=O)NS(C)(=O)=O)cc2F)cc1Cl` [Example 150, 4-{[5-chloro-6-(diethylamino)pyridin-3-yl]oxy}-2,5-difluoro-N-(methylsulfonyl)benzamide]: 220 nM. On to `CCc1cn2nc(Oc3cc(F)c(C(=O)NS(C)(=O)=O)cc3F)ccc2n1` [Example 180, 4-[(2-ethylimidazo[1,2-b]pyridazin-6-yl)oxy]-2,5-difluoro-N-(methylsulfonyl)benzamide], for which, in test [2], the IC50 stood at 232000 nM. For `CS(=O)(=O)NC(=O)c1cc(F)c(Oc2ncccc2C(F)(F)F)cc1F` [Example 182, 2,5-difluoro-N-(methylsulfonyl)-4-{[3-(trifluoromethyl)pyridin-2-yl]oxy}benzamide], the IC50 in test [1] was > 3000 nM.

With `Cc1cc(Oc2cc(F)c(C(=O)NS(C)(=O)=O)cc2F)nc(C)n1` [Example 183, 4-[(2,6-dimethylpyrimidin-4-yl)oxy]-2,5-difluoro-N-(methylsulfonyl)benzamide], the IC50 in test [2] was > 323000 nM. Turning to `CS(=O)(=O)NC(=O)c1cc(F)c(Oc2ccc(Cl)cn2)cc1F` [Example 184, 4-[(5-chloropyridin-2-yl)oxy]-2,5-difluoro-N-(methylsulfonyl)benzamide], the IC50 in test [1] was 4400 nM. `Cc1cc(C#N)nc(Oc2cc(F)c(C(=O)NS(C)(=O)=O)cc2F)c1` [Example 185, 4-[(6-cyano-4-methylpyridin-2-yl)oxy]-2,5-difluoro-N-(methylsulfonyl)benzamide]: the IC50 in test [2] was > 323000 nM. For `Cc1cc(N(C)C)nc(Oc2cc(F)c(C(=O)NS(C)(=O)=O)cc2F)n1` [Example 186, 4-{[4-(dimethylamino)-6-methylpyrimidin-2-yl]oxy}-2,5-difluoro-N-(methylsulfonyl)benzamide], the IC50 in test [2] was > 323000 nM. Take `Cc1nc2ccccc2nc1Oc1cc(F)c(C(=O)NS(C)(=O)=O)cc1F` [Example 187, 2,5-difluoro-4-[(3-methylquinoxalin-2-yl)oxy]-N-(methylsulfonyl)benzamide]: the IC50 in test [1] is > 3000 nM. As for `Cc1nccnc1Oc1cc(F)c(C(=O)NS(C)(=O)=O)cc1F` [Example 189, 2,5-difluoro-4-[(3-methylpyrazin-2-yl)oxy]-N-(methylsulfonyl)benzamide], the IC50 in test [2] came out at 232000 nM.

For the compound `COc1ccc2nc(Oc3cc(F)c(C(=O)NS(C)(=O)=O)cc3F)ccc2c1` [Example 190, 2,5-difluoro-4-[(6-methoxyquinolin-2-yl)oxy]-N-(methylsulfonyl)benzamide], the IC50 in test [2] came to 29300 nM. In the case of `CC(C)c1nccnc1Oc1cc(F)c(C(=O)NS(C)(=O)=O)cc1F` [Example 193, 2,5-difluoro-4-[(3-isopropylpyrazin-2-yl)oxy]-N-(methylsulfonyl)benzamide], in test [1], the IC50 was 2100 nM. On the same count and under the same terms, next, `CS(=O)(=O)NC(=O)c1cc(F)c(Oc2ccc(C(F)(F)F)cn2)cc1F` [Example 194, 2,5-difluoro-N-(methylsulfonyl)-4-{[5-(trifluoromethyl)pyridin-2-yl]oxy}benzamide]: 3100 nM.

With `CS(=O)(=O)NC(=O)c1cc(F)c(Oc2nncc3ccccc23)cc1F` [Example 195, 2,5-difluoro-N-(methylsulfonyl)-4-(phthalazin-1-yloxy)benzamide], the IC50 in test [2] was > 323000 nM.

Consider `Cc1cc2ccccc2nc1Oc1cc(F)c(C(=O)NS(C)(=O)=O)cc1F` [Example 196, 2,5-difluoro-4-[(3-methylquinolin-2-yl)oxy]-N-(methylsulfonyl)benzamide], for which the IC50 in test [1] is > 3000 nM. `CCCc1ncc(F)c(Oc2cc(F)c(C(=O)NS(C)(=O)=O)cc2F)n1` [Example 197, 2,5-difluoro-4-[(5-fluoro-2-propylpyrimidin-4-yl)oxy]-N-(methylsulfonyl)benzamide]: the IC50 in test [2] was > 323000 nM.
